Patent US10947245B2, “Crystal form A of 2-butoxy-7-(4-(pyrrolidin-1-ylmethyl)benzyl)-5H-pyrrolo[3,2-d]pyrimidin-4-amine for inhibiting toll-like receptor activity” (priority 2016, dated 2021)

How the values were obtained:
Toll-like receptor 7 = target: T1, Toll-like receptor 7 (Homo sapiens, UniProt Q9NYK1); experiment: Toll-like receptor 7 in vitro receptor binding activity screen (HEK-blue hTLR7 cell, Quanti-Blue alkaline phosphatase readout); assay type: cell-based; conditions: versus GS-9620
T1 construct: host or cells: HEK-blue hTLR7 cell (HEK293-derived reporter line)
T1 sequence (Q9NYK1 27-1049): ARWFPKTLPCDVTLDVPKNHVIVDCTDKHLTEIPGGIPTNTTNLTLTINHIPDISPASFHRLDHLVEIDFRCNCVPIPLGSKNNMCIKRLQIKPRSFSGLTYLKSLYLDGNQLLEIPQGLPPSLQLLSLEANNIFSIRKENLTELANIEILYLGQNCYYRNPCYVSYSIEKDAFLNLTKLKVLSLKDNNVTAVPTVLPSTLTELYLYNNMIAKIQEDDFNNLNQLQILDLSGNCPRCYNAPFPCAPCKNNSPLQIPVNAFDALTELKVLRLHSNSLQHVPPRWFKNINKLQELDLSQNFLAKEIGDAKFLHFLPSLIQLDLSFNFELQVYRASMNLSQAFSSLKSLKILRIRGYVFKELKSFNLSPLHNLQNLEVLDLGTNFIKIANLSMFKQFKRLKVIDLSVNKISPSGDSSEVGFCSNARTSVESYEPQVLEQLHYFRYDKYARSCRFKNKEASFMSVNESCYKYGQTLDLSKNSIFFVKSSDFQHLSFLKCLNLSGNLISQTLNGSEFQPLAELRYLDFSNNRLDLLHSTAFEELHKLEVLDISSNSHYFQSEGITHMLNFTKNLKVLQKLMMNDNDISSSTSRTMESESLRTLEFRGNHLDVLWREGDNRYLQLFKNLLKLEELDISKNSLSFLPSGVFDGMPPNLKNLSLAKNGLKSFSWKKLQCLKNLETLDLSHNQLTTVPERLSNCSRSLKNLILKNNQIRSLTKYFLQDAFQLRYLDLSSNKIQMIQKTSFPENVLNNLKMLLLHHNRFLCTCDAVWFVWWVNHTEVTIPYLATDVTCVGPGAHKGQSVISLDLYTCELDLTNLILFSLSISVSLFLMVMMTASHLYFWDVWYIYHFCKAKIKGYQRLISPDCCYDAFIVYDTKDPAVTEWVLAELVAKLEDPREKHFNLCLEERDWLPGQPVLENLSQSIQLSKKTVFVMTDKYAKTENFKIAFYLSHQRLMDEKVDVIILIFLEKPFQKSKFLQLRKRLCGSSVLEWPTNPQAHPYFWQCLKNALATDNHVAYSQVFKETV
Protocol: (§1) Efficacy example 1: Toll-like receptor 7 and Toll-like receptor 8 in vitro receptor binding activity screen
(§2) HEK-blue hTLR7 cell and HEK-blue hTLR8 cell (available from InvivoGen)
(§3) The compounds were gradient diluted with DMSO in 3-fold using liquid work station POD starting at a concentration of 10 mmol/L and 10 points were diluted (2nd column to 11th column, and each point was duplicated). At 12th column, 1 μL of 5 mg/mL positive compound R848 was added as positive control; and at 1st column, 1 μL of DMSO was added as negative control. Each well contained 1 μL of DMSO.
(§4) 2. The cells in culture flask were collected and the cell density was diluted to 250,000 cells/mL.
(§5) 3. 200 μL (50,000 cells/well) of cell suspension was added into prepared compound plate and the final concentration of DMSO in each well was 0.5%.
(§6) 4. The culture plates containing cells and the compounds were incubated in CO2 incubator for 24 h at 37° C., 5% CO2.
(§7) 5. After 24 h incubation, 20 μL of supernatant was removed from each well to a 96-well transparent assay plate. To each well of the assay plate was added 180 μL of Quanti-Blue reagent and the plate was incubated in an incubator at 37° C., 5% CO2 for 1 h.
(§8) 6. After 1 h, the content of alkaline phosphatase in 20 μL of supernatant was determined using Microplate Reader OD650.
(§9) 7. EC50 of each compound was obtained with Prism software.

Toll-like receptor 8 = target: T2, Toll-like receptor 8 (Homo sapiens, UniProt Q9NR97); experiment: Toll-like receptor 8 in vitro receptor binding activity screen (HEK-blue hTLR8 cell, Quanti-Blue alkaline phosphatase readout); assay type: cell-based; conditions: versus GS-9620
T2 construct: host or cells: HEK-blue hTLR8 cell (HEK293-derived reporter line)
T2 sequence (Q9NR97 27-1041): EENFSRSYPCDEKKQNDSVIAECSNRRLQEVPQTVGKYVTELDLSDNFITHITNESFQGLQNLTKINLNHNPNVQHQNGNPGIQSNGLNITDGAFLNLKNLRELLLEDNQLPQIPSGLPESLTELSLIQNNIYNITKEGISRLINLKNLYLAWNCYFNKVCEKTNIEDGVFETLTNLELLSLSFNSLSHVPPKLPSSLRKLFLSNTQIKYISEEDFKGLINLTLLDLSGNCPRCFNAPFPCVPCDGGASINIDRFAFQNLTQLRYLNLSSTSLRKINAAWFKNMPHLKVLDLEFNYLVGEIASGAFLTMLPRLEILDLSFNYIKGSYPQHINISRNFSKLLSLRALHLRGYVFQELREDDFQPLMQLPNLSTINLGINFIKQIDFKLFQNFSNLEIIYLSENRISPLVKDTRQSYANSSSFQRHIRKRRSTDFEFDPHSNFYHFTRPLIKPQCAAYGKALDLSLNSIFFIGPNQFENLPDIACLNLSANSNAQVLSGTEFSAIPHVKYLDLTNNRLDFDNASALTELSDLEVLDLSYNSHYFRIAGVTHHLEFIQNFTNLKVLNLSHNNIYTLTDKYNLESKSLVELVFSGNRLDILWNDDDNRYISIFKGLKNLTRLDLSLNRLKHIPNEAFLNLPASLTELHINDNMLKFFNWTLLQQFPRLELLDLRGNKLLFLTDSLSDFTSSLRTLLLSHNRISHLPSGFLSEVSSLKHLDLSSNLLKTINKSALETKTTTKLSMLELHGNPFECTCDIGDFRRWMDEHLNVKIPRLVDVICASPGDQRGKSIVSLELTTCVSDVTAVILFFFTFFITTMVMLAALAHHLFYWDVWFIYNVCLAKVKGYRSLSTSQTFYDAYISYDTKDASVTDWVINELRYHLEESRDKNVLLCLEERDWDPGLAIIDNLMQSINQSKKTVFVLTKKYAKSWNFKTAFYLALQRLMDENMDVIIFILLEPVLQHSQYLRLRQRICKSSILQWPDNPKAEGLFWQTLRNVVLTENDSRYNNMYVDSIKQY
Protocol: as §1, §2, §3, §4, §5, §6, §7, §8, §9

[1] = system: human peripheral blood mononuclear cells (PBMC); experiment: Peripheral blood mononuclear cell test: cytokine stimulation (CBA, flow cytometer); assay type: cell-based; conditions: for TNF-α MEC / IFN-α MEC: human PBMC, 24 h; for IFN-α MEC: lowest drug concentration stimulating the production of 30 pg/mL of IFN-α
Protocol: The purpose of this example is to determine the expression level of cytokines 24 h after stimulation to human peripheral blood mononuclear cells (PBMC) with the compound of formula I.
The cell supernatant was assayed without dilution and the levels of IFN-α were directly determined. The compound of formula I was firstly formulated into 20 mM DMSO stock solution during the test and was gradient diluted with cell medium in 10-fold with the total number of 11 diluting points. The compounds in 9 diluting points (the highest concentration was 200 μmol/L) were added into 96-well plate with 50 μL in each well. Fresh human peripheral blood mononuclear cells were inoculated, with 150 μL in each well containing 450,000 cells. The cell culture plate was incubated in an incubator at 37° C., 5% CO2 for 24 h. After incubation, the culture plate was centrifuged at 1200 rpm for 5 min and the supernatant was collected and stored at −20° C. for determination. The determination of cytokine was performed using Cytometric Bead Array (CBA) of BD-Pharmingen on flow cytometer. Using the above determining method, the lowest drug concentration stimulating the production of 30 pg/mL of IFN-α was designated as the MEC value in the cytokine stimulating test.

[2] = High temperature stability test (60° C., open container); assay type: physicochemical; conditions: for Appearance / Content / Total content of impurities: open container
Protocol: The crystal form A of the compound of formula I was tested in the accelerated test under high temperature conditions for stability in accordance with Guidelines for the Stability Test of Pharmaceutical Ingredients and Pharmaceutical Preparations (Chinese Pharmacopoeia 2010 Appendix XIXC).
The crystal form A prepared in Example 1 was placed in an open-clean container at 60° C. The samples were taken for test on day 10, day 20 and day 30, respectively.

[3] = High humidity stability test (40° C./75% humidity, open); assay type: physicochemical; conditions: for Appearance / Content / Total content of impurities: 40° C./75% humidity (open)
Protocol: The crystal form A of the compound of formula I was tested in the accelerated test under high humidity conditions for stability in accordance with Guidelines for the Stability Test of Pharmaceutical Ingredients and Pharmaceutical Preparations (Chinese Pharmacopoeia 2010 Appendix XIXC).
The crystal form A prepared in Example 1 was subjected to an accelerated test in a constant temperature and humidity vessel under the conditions of 40° C./75% humidity (open). The samples were taken for test on day 30, day 60 and day 90, respectively.

CCCCOc1nc(N)c2[nH]cc(Cc3ccc(CN4CCCC4)cc3)c2n1 [Compound of formula I, 2-butoxy-7-(4-(pyrrolidin-1-ylmethyl)benzyl)-5H-pyrrolo[3,2-d]pyrimidin-4-amine]
in vitro receptor binding activity to Toll-like receptor 7 compared with control GS-9620 (in words) (Toll-like receptor 7): higher in vitro receptor binding activity to Toll-like receptor 7 than the control
in vitro receptor binding activity to Toll-like receptor 8 compared with control GS-9620 (in words) (Toll-like receptor 8): lower in vitro receptor binding activity to Toll-like receptor 8 than the control
TNF-α MEC [1]: 500 nM
IFN-α MEC [1]: 5 nM
TNF-α inducing activity compared with control GS-9620 (in words) ([1]; versus GS-9620): comparable TNF-α inducing activity
in vitro IFN-α inducing activity of PBMCs compared with control GS-9620 (in words) ([1]; versus GS-9620): better in vitro IFN-α inducing activity of PBMCs

CCCCOc1nc(N)c2c(n1)N(Cc1cccc(CN3CCCC3)c1)CC(=O)N2 [GS-9620, reference compound]
TNF-α MEC [1]: 500 nM
IFN-α MEC [1]: 50 nM

CCCCOc1nc(N)c2[nH]cc(Cc3ccc(CN4CCCC4)cc3)c2n1 [crystal form A, 2-butoxy-7-(4-(pyrrolidin-1-ylmethyl)benzyl)-5H-pyrrolo[3,2-d]pyrimidin-4-amine]
Appearance ([2]; day 0 (initial)): White powder
Content ([2]; day 0 (initial)): 99.8%
Total content of impurities ([2]; day 0 (initial)): 0.92%
Appearance ([2]; day 10): Light yellow powder
Content ([2]; day 10): 98.5%
Total content of impurities ([2]; day 10): 1.10%
Appearance ([2]; day 20): Light yellow powder
Content ([2]; day 20): 98.1%
Total content of impurities ([2]; day 20): 1.18%
Appearance ([2]; day 30): Light yellow powder
Content ([2]; day 30): 98.8%
Total content of impurities ([2]; day 30): 1.29%
stability in high temperature conditions (in words) ([2]; up to 30 days): good stability in high temperature conditions
Appearance ([3]; day 0 (initial)): White powder
Content ([3]; day 0 (initial)): 100.2%
Total content of impurities ([3]; day 0 (initial)): 0.92%
Appearance ([3]; day 30): White powder
Content ([3]; day 30): 99.9%
Total content of impurities ([3]; day 30): 0.92%
Appearance ([3]; day 60): White powder
Content ([3]; day 60): 99.9%
Total content of impurities ([3]; day 60): 0.65%
Appearance ([3]; day 90): White powder
Content ([3]; day 90): 100.2%
Total content of impurities ([3]; day 90): 0.93%
stability in high humidity conditions (in words) ([3]; 40° C./75% humidity, up to 90 days): good stability in high humidity conditions
